Results: patent publication US20260200947A1, “FUSED CYCLIC COMPOUNDS AND USE THEREOF” (Jacobio Pharmaceuticals Co., Ltd., priority 2022, published 2026)
pIC50: −log10 of the molar value. Read-outs that look alike come from different tables or passages of the source.

Key:
[1] = molecular target: T1, GDP-KRAS G12V (Homo sapiens, UniProt P01116, G12V); assay: SOS1 catalyzed nucleotide exchange assay, GDP-KRAS G12V; conditions: read-out: Biochemical assays, IC50, KRAS G12V GDP, GDP form K-Ras G12V, TR-FRET
[2] = molecular target: T2, GDP-KRAS G12D (Homo sapiens, UniProt P01116, G12D); assay: SOS1 catalyzed nucleotide exchange assay, GDP-KRAS G12D; conditions: read-out: Biochemical assays, IC50, KRAS G12D GDP, GDP form K-Ras G12D, TR-FRET
[3] = system: SW620 cells (K-Ras G12V)
Protocol: (§1) Each of cells in culture medium was plated in TC-treated 96-well plates at a density indicated in Table 4 and incubated in a cell incubator overnight. The next day, each of compounds was diluted in culture medium and added to the plates. After 6 days incubation in cell incubator, the cell viability was detected by CellTiter-Glo® Cell Viability Assay kit (Promega).

[4] = molecular target: T1, GDP-KRAS G12V; assay: biochemical
[5] = molecular target: T2, GDP-KRAS G12D; assay: biochemical
[6] = system: Capan-2 cells (K-Ras G12V)
Protocol: (§2) Each of cells in culture medium was seeded in 96-well plates at density indicated in Table 4 and put in a cell incubator to incubate overnight. The next day, the culture medium was removed and the compound diluted in assay medium was added in each well. […] 10 μL of cell lysates from the 96-well plates were transferred to a 384-well plate (Greiner) containing 2.5 μL/well HTRF® pre-mixed antibodies (Cisbio 64AERPEH). The plate was incubated 4 hours at 25° C. and read HTRF signals on Tecan Spark multimode microplate reader. The data were analyzed using a 4-parameter logistic model to calculate IC50 values.

[7] = system: AsPC-1 cells (K-Ras G12D)
Protocol: as §1

[8] = molecular target: T3, GppNp-KRAS G12V (Homo sapiens, UniProt P01116, G12V); assay: biochemical
[9] = molecular target: T4, GppNp-KRAS G12D (Homo sapiens, UniProt P01116, G12D); assay: biochemical
[10] = Mouse pharmacokinetic study; type: in vivo; conditions: Balb/c mouse (female); for Cl_obs / AUC(0-t) / Cmax: plasma; for AUC(0-t): read-out: AUC0-24 h; for F: 10 mg/kg po vs 3 mg/kg iv; for Cmax: read-out: Cmax
Protocol: The purpose of this study was to evaluate the pharmacokinetic properties of compounds in Balb/c mouse (female) following single dose administration. Six mice were needed for each compound and the six mice were divided into two groups (n=3/group), group A and group B. Mice in group A were treated with a single 3 mg/kg dose of compound (iv). Mice in group B were treated with a single 10 mg/kg dose of compound (po). Foreach mouse in group A, blood samples were collected at the time point of 0.083 h 0.5 h, 1 h, 2 h, 4 h, 8 h and 24 h post-dose. For each mouse in group B, blood samples were collected at the time point of 0.25 h, 0.5 h, 1 h, 2 h, 4 h, 8 h and 24 h post-dose. Blood samples were placed on ice until centrifugation to obtain plasma samples. The plasma samples were stored at −80° C. until analysis. The concentration of compound in plasma samples was determined using a LC-MS/MS method.

[11] = system: SW620 cells (K-Ras G12V); assay: Phospho-ERK1/2(THR202/TYR204) HTRF assay, SW620; type: cell-based; conditions: read-out: pERK, IC50, SW620
Protocol: as §2

[12] = molecular target: T4, GppNp-KRAS G12D; assay: GTP-K-Ras and cRAF interaction assay, GppNp-KRAS G12D; conditions: read-out: Biochemical assays, IC50, KRAS G12D GppNp; GppNp-loaded K-Ras G12D, cRAF RBD interaction, HTRF
[13] = molecular target: T3, GppNp-KRAS G12V; assay: GTP-K-Ras and cRAF interaction assay, GppNp-KRAS G12V; conditions: read-out: Biochemical assays, IC50, KRAS G12V GppNp; GppNp-loaded K-Ras G12V, cRAF RBD interaction, HTRF
[14] = Homo sapiens, SW-620, 2 hours incubation

T1 sequence (P01116 1-169 isoform P01116-2 G12V): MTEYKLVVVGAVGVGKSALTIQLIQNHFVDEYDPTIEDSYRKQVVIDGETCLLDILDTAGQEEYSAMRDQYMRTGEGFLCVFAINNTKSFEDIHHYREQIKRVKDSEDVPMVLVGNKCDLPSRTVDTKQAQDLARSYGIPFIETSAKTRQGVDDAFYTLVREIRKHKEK
T3 sequence (P01116 1-169 isoform P01116-2 G12V): as above
T4 sequence (P01116 1-169 isoform P01116-2 G12D): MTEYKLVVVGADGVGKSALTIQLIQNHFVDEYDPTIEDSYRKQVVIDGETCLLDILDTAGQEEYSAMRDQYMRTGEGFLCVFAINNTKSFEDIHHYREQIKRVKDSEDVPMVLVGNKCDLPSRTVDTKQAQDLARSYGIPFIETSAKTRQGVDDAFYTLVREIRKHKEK
T2 sequence (P01116 1-169 isoform P01116-2 G12D): as above

| SMILES | pIC50 [1] | pIC50 [2] | pIC50 [3] | pIC50 [4] | pIC50 [5] | pIC50 [6] | pIC50 [7] | pIC50 [8] | pIC50 [9] | pIC50 [11, 14] | further results |
| --- | --- | --- | --- | --- | --- | --- | --- | --- | --- | --- | --- |
| N#Cc1c(N)sc2c(F)ccc(-c3c(Cl)c4c5c(nc(OCC67CCCN6CC(F)C7)nc5c3F)N3CCCOCC3CO4)c12 (single isomer, unassigned) [Compound 66A] | 6.48 | 6.77 | – | – | – | – | – | – | – | – | – |
| N#Cc1c(N)sc2c(F)ccc(-c3c(F)c4c5c(nc(OC[C@@]67CCCN6C[C@H](F)C7)nc5c3F)N3CCCOC[C@H]3CO4)c12 (single isomer, unassigned) [Compound 163B] | – | – | 8.67 | 8.98 | 9.06 | 8.21 | 7.85 | 7.74 | 8.09 | – | Cl_obs ([10]; 3 mg/kg, iv): 1.86 mL/min/kg; AUC(0-t) ([10]; 3 mg/kg, iv): 27300 ng·h/mL; F [10]: 25.3%; AUC(0-t) ([10]; 10 mg/kg, po): 23000 ng·h/mL; Cmax ([10]; 10 mg/kg, po): 5310 ng/mL |
| C#Cc1c(F)ccc2cc(N)cc(-c3nc4c5c(nc(OC[C@@]67CCCN6C[C@H](F)C7)nc5c3F)N3CCCOC[C@H]3CO4)c12 [Compound 1] | – | – | 8.03 | – | – | 8.20 | 6.99 | – | – | 8.35 | Cl_obs ([10]; 3 mg/kg, iv): 6.33 mL/min/kg; AUC(0-t) ([10]; 3 mg/kg, iv): 7990 ng·h/mL; F [10]: 17.2%; AUC(0-t) ([10]; 10 mg/kg, po): 4590 ng·h/mL; Cmax ([10]; 10 mg/kg, po): 1140 ng/mL |
| CCc1c(F)ccc2cc(N)cc(-c3nc4c5c(nc(OC[C@@]67CCCN6C[C@H](F)C7)nc5c3F)N3CCCOC[C@H]3CO4)c12 [Compound 6A] | 8.47 | 8.91 | 7.58 | – | – | – | 6.76 | – | – | – | pIC50 ([11]; 2 hours incubation): 7.90; pIC50 [12]: 6.30 |
| C=Cc1c(F)ccc2cc(N)cc(-c3nc4c5c(nc(OC[C@@]67CCCN6C[C@H](F)C7)nc5c3F)N3CCCOC[C@H]3CO4)c12 [Compound 6B] | 8.42 | 8.42 | 7.55 | – | – | – | 6.58 | – | – | – | pIC50 ([11]; 2 hours incubation): 7.79; pIC50 [12]: 6.09 |
| C#Cc1c(F)ccc2cc(N)cc(-c3nc4c5c(nc(OC[C@@]67CCCN6C[C@H](F)C7)nc5c3F)N3CCCOC[C@H]3[C@H](C)O4)c12 [Compound 18A] | 8.33 | 8.27 | 7.21 | – | – | – | 6.41 | – | – | – | pIC50 ([11]; 2 hours incubation): 7.23 |
| C#Cc1c(F)ccc2cc(N)cc(-c3nc4c5c(nc(OC[C@@]67CCCN6C[C@H](F)C7)nc5c3F)N3CCCCC[C@@H]3CO4)c12 [Compound 27A] | 7.19 | 7.32 | – | – | – | – | – | – | – | – | pIC50 [12]: < 6.00; pIC50 [13]: < 6.00 |
| C#Cc1c(F)ccc2cc(N)cc(-c3nc4c5c(nc(OC[C@@]67CCCN6C[C@H](F)C7)nc5c3F)N3[C@@H](C)CCOC[C@H]3N4C)c12 [Compound 36] | – | – | 8.92 | 9.72 | 9.47 | 9.45 | 7.77 | 7.52 | 7.71 | 9.00 | – |
| C#Cc1c(F)ccc2cc(N)cc(-c3nc4c5c(nc(OC[C@@]67CCCN6C[C@H](F)C7)nc5c3F)N3CCCC[C@H](F)[C@H]3N4C)c12 [Compound 40A] | – | – | 8.57 | 9.04 | 9.06 | 9.07 | 8.60 | 7.44 | 8.03 | 9.48 | – |
| C#Cc1c(F)ccc2cc(N)cc(-c3nc4c5c(nc(OCC67CCCN6CC(F)C7)nc5c3F)N3CCCCC(F)C3N4C)c12 (stereo not shown) [Compound 40B] | 8.15 | 8.81 | – | – | – | – | – | – | – | – | pIC50 [12]: 6.79; pIC50 [13]: 6.15 |
| C#Cc1c(F)ccc2cc(N)cc(-c3nc4c5c(nc(OC[C@@]67CCCN6C[C@H](F)C7)nc5c3F)N3[C@@H](C)[C@@H](F)COC[C@H]3N4C)c12 [Compound 57] | – | – | 8.49 | – | – | 9.34 | 8.00 | – | – | – | – |
| C#Cc1c(F)ccc2cc(N)cc(-c3nc4c5c(nc(OC[C@@]67CCCN6C[C@H](F)C7)nc5c3F)N3[C@@H](C)[C@H](F)COC[C@H]3N4C)c12 [Compound 58] | – | – | 8.92 | – | – | 9.39 | 7.67 | – | – | – | – |
| C#Cc1c(F)ccc2cc(N)cc(-c3nc4c5c(nc(OC[C@@]67CCCN6C[C@H](F)C7)nc5c3F)N3[C@@H](COC)CCOC[C@H]3N4C)c12 [Compound 59A] | – | – | 7.88 | – | – | 9.50 | 7.21 | – | – | – | – |
| C#Cc1c(F)ccc2cc(N)cc(-c3nc4c5c(nc(OC[C@@]67CCCN6C[C@H](F)C7)nc5c3F)N3CCCC[C@@H](Cl)[C@@H]3N4C)c12 [Compound 62A] | 6.41 | 6.15 | – | – | – | – | – | – | – | – | pIC50 [12]: < 6.00; pIC50 [13]: < 6.00 |
| C#Cc1c(F)ccc2cc(N)cc(-c3nc4c5c(nc(OC[C@@]67CCCN6C[C@H](F)C7)nc5c3F)N3[C@@H](CC)CCOC[C@H]3N4C)c12 [Compound 94] | – | – | 8.22 | 9.24 | 8.93 | – | 7.08 | 6.69 | 6.65 | 8.77 | – |
| C#Cc1c(F)ccc2cc(N)cc(-c3nc4c5c(nc(OC[C@@]67CCCN6C[C@H](F)C7)nc5c3F)N3CCOCCC3N4C)c12 (stereo partly shown) [Compound 114] | – | – | 7.34 | 8.68 | 8.43 | – | 6.23 | 6.13 | 6.53 | 7.55 | – |
| C[C@H]1CCOC[C@H]2N(C)c3nc(-c4cc(O)cc5ccc(F)c(Cl)c45)c(F)c4nc(OC[C@@]56CCCN5C[C@H](F)C6)nc(c34)N12 [Compound 119] | – | – | 7.83 | 9.09 | 8.82 | – | 7.28 | 6.63 | 7.15 | 7.89 | – |
| CCc1c(F)ccc2cc(N)cc(-c3nc4c5c(nc(OC[C@@]67CCCN6C[C@H](F)C7)nc5c3F)N3[C@@H](C)CCOC[C@H]3N4C)c12 [Compound 127] | – | – | 7.20 | 8.67 | 8.41 | – | 6.76 | < 6.00 | 6.52 | 7.66 | – |
| C#Cc1c(F)ccc2cc(N)cc(-c3nc4c5c(nc(OC[C@@]67CCCN6C[C@H](F)C7)nc5c3F)N3[C@H]5C[C@H]5COC[C@H]3N4C)c12 [Compound 159B] | – | – | – | – | – | 8.27 | 6.51 | – | – | – | – |
| C#Cc1c(F)ccc2cc(N)cc(-c3nc4c5c(nc(OC[C@]67CC(=C)CN6C[C@@H](F)C7)nc5c3F)N3CCCOC[C@H]3N4C)c12 [Compound 171] | – | – | 7.36 | – | – | 8.60 | – | – | – | – | – |
